Patent US11795181B2, “Basic copper gluconate” (JOST CHEMICAL CO., priority 2020, dated 2023)

Tests used:
[1] = Aqueous solubility; format: physicochemical; details: in water
Text: However, at higher concentrations (i.e., 30% and above), solutions are prone to secondary redox reactions if left to sit for prolonged periods in the open air. Copper (II) slowly oxidizes gluconic acid producing a red precipitate of cuprous oxide (Cu2O). […] This is less evident in the 25% solution of basic copper gluconate than in the remaining, higher percentage, solutions.

[2] = background statement; cited from earlier work

SMILES	water solubility [1]	aqueous solubility (in words) [2]
O=C([O][Cu][OH])C(O)C(O)C(O)C(O)CO (centres unmarked) [Basic copper gluconate]	over 50 g/100 g water	–
O=C([O-])[C@H](O)[C@@H](O)[C@H](O)[C@H](O)CO.O=C([O-])[C@H](O)[C@@H](O)[C@H](O)[C@H](O)CO.[Cu+2] [copper gluconate, Copper gluconate]	–	excellent aqueous solubility
